Source: the NIST ThermoML archive (doi:10.1021/je100734t)
Numbers after ± are expanded uncertainties.

Assay: xn = mol fraction of the nth substance listed
Settings: 101 kPa, Liquid; for speed of sound: Pulse-echo method

Cc1cccc(C)c1 [1,3-dimethylbenzene] + CCCCCCCCCCO
Settings | mass density, 293.15 K [kg/m3] | mass density, 303.15 K [kg/m3] | mass density, 313.15 K [kg/m3] | speed of sound, 293.15 K [m/s] | speed of sound, 303.15 K [m/s] | speed of sound, 313.15 K [m/s]
x1 = 0.0627 | 831.48 ± 0.43 | 824.51 ± 0.44 | 817.53 ± 0.45 | 1392 ± 2 | 1358 ± 2 | 1324 ± 2
x1 = 0.1424 | 833.39 ± 0.43 | 826.27 ± 0.44 | 819.18 ± 0.45 | 1388 ± 2 | 1352 ± 2 | 1318 ± 2
x1 = 0.2052 | 834.93 ± 0.43 | 827.72 ± 0.44 | 820.53 ± 0.45 | 1383 ± 2 | 1347 ± 2 | 1312 ± 2
x1 = 0.2618 | 836.35 ± 0.44 | 829.06 ± 0.45 | 821.78 ± 0.46 | 1379 ± 2 | 1343 ± 2 | 1308 ± 2
x1 = 0.3217 | 837.9 ± 0.44 | 830.53 ± 0.45 | 823.14 ± 0.46 | 1375 ± 2 | 1338 ± 2 | 1302 ± 2
x1 = 0.3934 | 839.84 ± 0.44 | 832.37 ± 0.45 | 824.85 ± 0.46 | 1369 ± 2 | 1332 ± 2 | 1296 ± 2
x1 = 0.4989 | 842.94 ± 0.45 | 835.28 ± 0.46 | 827.6 ± 0.47 | 1361 ± 2 | 1324 ± 2 | 1287 ± 2
x1 = 0.5581 | 844.81 ± 0.45 | 837.05 ± 0.46 | 829.26 ± 0.47 | 1357 ± 2 | 1319 ± 2 | 1282 ± 2
x1 = 0.6343 | 847.44 ± 0.46 | 839.52 ± 0.47 | 831.6 ± 0.48 | 1352 ± 2 | 1313 ± 2 | 1276 ± 2
x1 = 0.7131 | 850.41 ± 0.46 | 842.31 ± 0.47 | 834.24 ± 0.49 | 1348 ± 2 | 1308 ± 2 | 1270 ± 2
x1 = 0.7991 | 853.99 ± 0.47 | 845.71 ± 0.48 | 837.47 ± 0.49 | 1344 ± 2 | 1304 ± 2 | 1265 ± 2
x1 = 0.8465 | 856.11 ± 0.47 | 847.74 ± 0.48 | 839.4 ± 0.5 | 1342 ± 2 | 1302 ± 2 | 1262 ± 2
x1 = 0.8964 | 858.52 ± 0.48 | 850.09 ± 0.49 | 841.61 ± 0.5 | 1341 ± 2 | 1300 ± 2 | 1260 ± 2
x1 = 0.9421 | 860.9 ± 0.48 | 852.38 ± 0.49 | 843.82 ± 0.5 | 1341 ± 2 | 1300 ± 2 | 1259 ± 2
x1 = 1 | 864.18 ± 0.49 | 855.56 ± 0.5 | 846.9 ± 0.51 | 1340 ± 2 | 1300 ± 2 | 1259 ± 2

CCCCCCCCCCO [decan-1-ol] + CCc1ccccc1
Settings | mass density, 293.15 K [kg/m3] | mass density, 303.15 K [kg/m3] | mass density, 313.15 K [kg/m3] | speed of sound, 293.15 K [m/s] | speed of sound, 303.15 K [m/s] | speed of sound, 313.15 K [m/s]
x2 = 0 | 829.98 ± 0.42 | 823.1 ± 0.43 | 816.27 ± 0.43 | 1396 ± 2 | 1362 ± 2 | 1329 ± 2
x2 = 0.0666 | 831.5 ± 0.42 | 824.47 ± 0.43 | 817.46 ± 0.43 | 1391 ± 2 | 1356 ± 2 | 1322 ± 2
x2 = 0.1392 | 833.18 ± 0.42 | 826 ± 0.43 | 818.82 ± 0.43 | 1385 ± 2 | 1350 ± 2 | 1316 ± 2
x2 = 0.1932 | 834.47 ± 0.41 | 827.18 ± 0.42 | 819.88 ± 0.42 | 1381 ± 2 | 1345 ± 2 | 1310 ± 2
x2 = 0.2642 | 836.24 ± 0.41 | 828.8 ± 0.42 | 821.32 ± 0.42 | 1375 ± 2 | 1339 ± 2 | 1304 ± 2
x2 = 0.3355 | 838.11 ± 0.4 | 830.52 ± 0.41 | 822.85 ± 0.41 | 1369 ± 2 | 1333 ± 2 | 1297 ± 2
x2 = 0.3936 | 839.72 ± 0.4 | 832.03 ± 0.41 | 824.21 ± 0.41 | 1364 ± 2 | 1327 ± 2 | 1291 ± 2
x2 = 0.4483 | 841.33 ± 0.4 | 833.52 ± 0.41 | 825.58 ± 0.41 | 1360 ± 2 | 1322 ± 2 | 1286 ± 2
x2 = 0.5238 | 843.73 ± 0.39 | 835.78 ± 0.4 | 827.65 ± 0.4 | 1354 ± 2 | 1316 ± 2 | 1279 ± 2
x2 = 0.598 | 846.33 ± 0.39 | 838.23 ± 0.4 | 829.91 ± 0.4 | 1349 ± 2 | 1310 ± 2 | 1273 ± 2
x2 = 0.6621 | 848.79 ± 0.38 | 840.59 ± 0.39 | 832.13 ± 0.39 | 1344 ± 2 | 1305 ± 2 | 1268 ± 2
x2 = 0.7309 | 851.72 ± 0.38 | 843.4 ± 0.39 | 834.8 ± 0.39 | 1341 ± 2 | 1301 ± 2 | 1263 ± 2
x2 = 0.7953 | 854.7 ± 0.37 | 846.31 ± 0.38 | 837.56 ± 0.38 | 1338 ± 2 | 1298 ± 2 | 1259 ± 2
x2 = 0.8668 | 858.41 ± 0.36 | 849.96 ± 0.37 | 841.06 ± 0.37 | 1336 ± 2 | 1295 ± 2 | 1256 ± 2
x2 = 0.9396 | 862.65 ± 0.36 | 854.3 ± 0.37 | 845.13 ± 0.37 | 1336 ± 2 | 1295 ± 2 | 1255 ± 2
